The text below walks through data of paper PMC4436593, “Endoplasmic reticulum stress-independent activation of unfolded protein response kinases by a small molecule ATP-mimic” (eLife, 2015).

“Also recorded” adds a separate entry of the source.

In data set [1] the test system is XBP1 mRNA splicing in HEK293T cells. Kind of data set: XBP1 mRNA splicing by RT-PCR in HEK293T cells. It is filed as cell-based, human. Conditions: [AD60] = 1 μM, 4 hr. As for the experimental part:
To examine the effects of IPA in living cells, we monitored the UPR in HEK293T cells using RT-PCR to measure splicing of XBP1 mRNA. […] At a concentration of 2 μM IPA, splicing was induced within 2 hr (lane 5). […] We used tunicamycin (Tm), which induces ER stress by blocking N-linked glycosylation, as a positive control to induce the UPR (Figure 2A, lanes 7, and Figure 2B, lane 4).
Cells were lysed and total RNA was collected (Total RNA Kit 1, EZ-RNA, EZNA [USA]). PolyA^+ mRNA was reverse transcribed with M-MLV (Invitrogen), and the resulting cDNA was used as a template for PCR amplification across the fragment of XBP1 cDNA containing the intron. Primers used to amplify human XBP1: 5′-[…]-3′ and 5′-[…]-3′. To amplify murine XBP1: 5′-[…]-3′ and 5′-[…]-3′. PCR conditions were as follows: 95°C for 5 min, 95°C for 1 min, 58°C for 30 s, 72°C for 30 s, and 72°C for 5 min, with 20 cycles of amplification. PCR products were resolved on a 2.5% agarose tris-acetate EDTA (TAE) gel. As previously reported, a hybrid amplicon species consisting of unspliced Xbp-1 annealed to spliced Xbp-1 can also be produced through this PCR reaction and was visible as a slower migrating band above the unspliced amplicon. The same cDNA was used as template for PCR of DERLIN-3 and HERPUD1, both ATF6 targets, and GAPDH, which was used as loading control. Primers used included the following: DERLIN-3, 5′-[…]-3′ and 5′-[…]-3′; HERPUD1-1, 5′-[…]-3′ and 5′-[…]-3′; GAPDH, 5′-[…]-3′ and 5′-[…]-3′. PCR conditions were: 95°C × 5 min, 95°C × 1 min, 56°C × 30 s, 72°C for 30 s for 25 cycles, 72°C for 5 min at 4°C. PCR products were resolved on a 2% agarose TAE gel.

The test system of data set [2] is XBP1 mRNA-splicing reporter (IRE1-mediated) in HEK293T cells. Nature of the data set: XBP1-luciferase splicing reporter in HEK293T cells. In kind it is cell-based. Particulars: Homo sapiens, HEK-293T, in the presence of Tm (2 μg/ml), read-out: IC50 of XBP1-luciferase-splicing reporter activation. From the text:
A plasmid encoding a modified ER stress reporter construct consisting of a C-terminally FLAG-tagged firefly luciferase coding sequence fused to an N-terminal hemagglutinin-tagged tandem repeat of a partial sequence of XBP1 of human origin lacking its DNA-binding domain and containing the IRE1-cognate intron (pCAX-HA-2xXBP1ΔDBD(anATG)-LUC-F, kind gift of Takao Iwawaki [[Hosoda et al., 2010]]), was used as a template to generate a retroviral expression construct. The coding sequence of the reporter was amplified by PCR using primers with engineered BamHI and EcoRI sites and was subsequently cloned into the cognate sites of the retroviral expression vector pBABE.puro (Addgene) to generate construct DAA-A171. DAA-A171 was used to generate recombinant retroviral particles using standard methods and the resulting retroviral supernatant was used to transduce HEK293T cells, which were then subsequently selected with puromycin to create a stable reporter cell line.

In a further data set the test system is HEK293T cells. Nature of the data set: HEK293T cell viability (CellTiter-Blue, 24 hr). Conditions: 24 hr, 1 μM, listed as GSK. It is filed as cell-based. The procedure:
HEK293T cells were grown in DMEM (Sigma) complete media containing 10% FBS, 10 units/ml penicillin (Invitrogen), and 10 μg/ml streptomycin (Invitrogen). Cells were plated at a density of 30,000 cells per well in 96-well black plates with clear flat bottoms (Corning, Sigma-Aldrich) 24 hr before the experiment. A 12-point semi-logarithmic dilution series of compounds was made starting at 30 μM not to exceed 0.1% DMSO after final dilution into the growth media. Viability assays were conducted over the course of 24 hr. Cell viability was determined using CellTiter-Blue (Promega) following the manufacturer's instructions. […] Experiments were done in triplicate, and mean values were computed for each data point.
(In general: Resazurin is reduced to fluorescent resorufin, in cell work by metabolically active cells.)

Data set [3] concerns PERK and eIF2α phosphorylation in HEK293T cells. Nature of the data set: PERK mobility shift and eIF2α phosphorylation by immunoblotting in HEK293T cells. In kind it is cell-based. As for the experimental part: To evaluate effects of IPA on the PERK branch, we measured the phosphorylation state of PERK and eIF2α by Western blotting. […] We also monitored PERK activation by phosphorylation of eIF2α, detected with a phospho-eIF2α-specific antibody (Figure 3C).
Cells were lysed in 50 mM Tris-HCl, 2% SDS, 10% glycerol, 0.01% bromophenol blue, pH 6.8 supplemented with phosphatase inhibitors (Sigma) and protease inhibitors (Roche). 30 μg to 50 μg of total protein was loaded on each lane of 8% or 10% SDS-PAGE gels. The separated proteins were then transferred onto nitrocellulose membranes for immunoblotting. The following antibodies and dilutions were used: anti-β-actin 1:10,000 (A5441, Sigma), anti-total PERK at 1:1000 (C33E10, Cell Signaling Technology), anti-phospho eIF2α at 1:1000 (3597S, Cell Signaling Technology), anti-total eIF2α at 1:1000 (L57A5, Cell Signaling Technology). After overnight incubation with primary antibody, membranes were washed in PBS with 0.05% Tween and incubated in HRP-coupled secondary antibody anti-rabbit (611–1302, Rockland) or anti-mouse (610–1302, Rockland) diluted at 1:5000 in wash buffer. Immunoreactive bands were detected by chemiluminescence.
In general terms: A western blot detects proteins with antibodies after separation by electrophoresis.

For data set [4], the system named is protein translation in HEK293T cells. Nature of the data set: Metabolic labeling: [35S] methionine incorporation in HEK293T cells. It is filed as cell-based. Particulars: IPA 1 μM + GSK 1 μM. The procedure:
HEK293T cells (500,000 cells/ml) were plated in 12-well flat bottom culture cluster dishes (Costar, Fisher Scientific) 24 hr before the experiment. IPA (1 μM), or a combination of IPA with GSK2606414 (TRC inc. […] Cells lysates were kept on ice for 30 min before high-speed centrifugation followed by denaturation at 95°C. The samples were resolved on an SDS-polyacrylamide gel, which were then stained with Coomassie blue to ascertain protein loading. […] The resulting autoradiograms were quantified using ImageQuant software (Molecular Dynamics).

A further data set has as its system PERK. Set-up: method as in Axten et al., 2012; Moreno et al., 2013. Particulars: ref Axten et al., 2012; Moreno et al., 2013; read-out: EC50 of PERK inhibition in cells; cited from earlier work.

The term IC50 denotes the concentration that gives 50% inhibition. For `Nc1ncnc2c1c(-c1ccc(NC(=O)Nc3cccc(C(F)(F)F)c3)cc1)nn2C1CCCC1` [AD60, reference compound], the “effect on Tm-induced XBP1 mRNA splicing” value in data set [1] (Tm) is reported as “inhibited Tm-induced XBP1 mRNA splicing”. The “effect on IPA-induced XBP1 mRNA splicing” value in data set [1] (up to highest IPA concentration tested) is given as “fully ablated IPA-induced XBP1 mRNA splicing”. The 50% inhibitory concentration (IC50) in data set [2] amounted to 750 nM.
The term EC50 denotes the concentration that produces a half-maximal response. On to `Cn1cc(-c2ccc3c(c2)CCN3C(=O)Cc2cccc(C(F)(F)F)c2)c2c(N)ncnc21` [GSK2606414, 7-methyl-5-(1-{[3-(trifluoromethyl)phenyl]acetyl}-2,3-dihydro-1H-indol-5-yl)-7H-p yrrolo[2,3-d]pyrimidin-4-amine, reference compound], for which the “effect on HEK293T cell viability at 1 μM” value in the data set with HEK293T cells is reported as “No effect on viability was observed; also recorded: no cell toxicity”. In data set [3] (GSK 1 μM alone), the “effect of compound alone on the PERK pathway” value is reported as “No effect on the pathway was observed”. The “effect on IPA-induced PERK and eIF2α phosphorylation” value in data set [3] (GSK 1 μM, IPA 0.5 and 1 μM) is “abolished IPA-induced PERK and eIF2α phosphorylation”. The “effect on translation in IPA-treated cells” value in data set [4] is “restored translation to baseline levels”. Further, the EC50 in the data set with PERK is […].
